The source of these data is US20100056497A1, “AMIDE DERIVATIVE” (DAINIPPON SUMITOMO PHARMA CO., LTD, priority 2007, published 2010).

What is called IC50 is the concentration that gives 50% inhibition.

Structures can show the parent of a compound that is named as a salt.

For one experiment, the target named is T1, Recombinant human renin (Homo sapiens, UniProt P00797).
T1 sequence (P00797 67-406): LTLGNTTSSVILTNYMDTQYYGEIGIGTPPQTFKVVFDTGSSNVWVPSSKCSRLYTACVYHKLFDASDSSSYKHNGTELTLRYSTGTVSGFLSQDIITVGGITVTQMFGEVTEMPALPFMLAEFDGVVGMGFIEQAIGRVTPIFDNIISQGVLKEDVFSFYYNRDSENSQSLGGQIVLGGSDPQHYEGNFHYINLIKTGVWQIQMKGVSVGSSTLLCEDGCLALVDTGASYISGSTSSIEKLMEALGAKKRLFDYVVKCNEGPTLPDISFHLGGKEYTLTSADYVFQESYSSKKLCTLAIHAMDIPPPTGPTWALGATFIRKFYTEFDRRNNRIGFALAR
Put plainly: In vitro renin inhibitory activity assay (fluorescence, FRET peptide substrate). It is filed as biochemical. To be noted: 37° C., one hour, substrate 4 μM, pH 7.4. As for the experimental part:
In Vitro Renin Inhibitory Activity Assay
Recombinant human renin (50 ng) was reacted in 0.1M BEPES buffer (pH 7.4) containing 0.1M NaCl, 1 mM EDTA and 0.1 mg/mL BSA together with a substrate and a test compound at 37° C. for one hour. As the substrate, Arg-Glu(EDANS)-Ile-His-Pro-Phe-His-Leu-Val-Ile-His-Thr-Lys(DABCYL)-Arg or DABCYL-γ-Abu-Ile-His-Pro-Phe-His-Leu-Val-Ile-His-Thr-EDANS was added in such an amount so that the final concentration thereof became 4 μM. The elevated fluorescence intensity at the exciting wavelength 340 nm and the fluorescence wavelength 500 nm was measured by a fluorescence plate reader. The concentration of a test compound to be needed to inhibit an enzyme activity in the presence of a test compound in plural concentrations by 50% was calculated as an IC50 value.
The amino acid sequence disclosed in Seq ID:1 is an amino acid sequence used in the renin inhibitory activity assay.
The amino acid sequence disclosed in Seq ID:2 is an amino acid sequence used in the renin inhibitory activity assay.
As for `COCCCOc1cc(C(=O)N(C(C)C)[C@@H]2CC[C@H](CCN(C(=O)CCOC)C3CC3)NC2)ccc1OC` [Example 64, N-((3R,6R)-6-{2-[Cyclopropyl(3-methoxypropanoyl)amino]ethyl}piperidin-3-yl)-N-isopropyl-4-methoxy-3-(3-methoxypropoxy)benzamide hydrochloride], the IC50 came out at 16.8 nM.

As for `COCCCOc1cc(C(=O)N(C(C)C)[C@@H]2CC[C@H](CCN(C(=O)CCCO)C3CC3)NC2)ccc1OC` [Example 66, N-((3R,6R)-6-{2-[Cyclopropyl(4-hydroxybutanoyl)amino]ethyl}piperidin-3-yl)-N-isopropyl-4-methoxy-3-(3-methoxypropoxy)benzamide hydrochloride], the half-inhibitory concentration (IC50) was found to be 61 nM.

`COCCCOc1cc(C(=O)N(C(C)C)[C@@H]2CC[C@H](CCN(C(=O)CC(C)(C)O)C3CC3)NC2)ccc1OC` [Example 67, N-((3R,6R)-6-{2-[Cyclopropyl(3-hydroxy-3-methylbutanoyl)amino]ethyl}piperidin-3-yl)-N-isopropyl-4-methoxy-3-(3-methoxypropoxy)benzamide hydrochloride]: the half-maximal inhibitory concentration (IC50) is 12.9 nM.

For `COCCCOc1cc(C(=O)N(C(C)C)[C@@H]2CC[C@H](CCN(C(=O)C=C(C)C)C3CC3)NC2)ccc1OC` [Example 68, N-((3R,6R-6-{2-[Cyclopropyl(3-methyl-2-butenoyl)amino]ethyl}piperidin-3-yl)-N-isopropyl-4-methoxy-3-(3-methoxypropoxy)benzamide hydrochloride], the concentration for half-maximal inhibition (IC50) was determined as 6.7 nM.

Consider `COCCCOc1cc(C(=O)N(C(C)C)[C@@H]2CC[C@H](CCN(C(=O)CC(C)(C)C(N)=O)C3CC3)NC2)ccc1OC` [Example 69, N^4-Cyclopropyl-N^4-[2-((2R,5R)-5-{isopropyl[4-methoxy-3-(3-methoxypropoxy)-benzoyl]amino}piperidin-2-yl)ethyl]-2,2-dimethylsuccinamide trifluoroacetate], for which the half-inhibitory concentration (IC50) was 27.9 nM.

For the compound `COCCCOc1cc(C(=O)N(C(C)C)[C@@H]2CC[C@H](CCN(C(=O)Cc3ccccc3Cl)C3CC3)NC2)ccc1OC` [Example 72, N-((3R,6R)-6-{2-[[(2-chlorophenyl)acetyl](cyclopropyl)amino]ethyl}piperidin-3-yl)-N-isopropyl-4-methoxy-3-(3-methoxypropoxy)benzamide trifluoroacetate], the half-maximal inhibitory concentration (IC50) was 3.7 nM.

For the compound `COCCCOc1cc(C(=O)N(C(C)C)[C@@H]2CC[C@H](CCN(C(=O)Cc3ccccc3OC)C3CC3)NC2)ccc1OC` [Example 73, N-[(3R,6R)-6-(2-{Cyclopropyl[(2-methoxyphenyl)acetyl]amino}ethyl)piperidin-3-yl]-N-isopropyl-4-methoxy-3-(3-methoxypropoxy)benzamide trifluoroacetate], the 50% inhibitory concentration (IC50) is 4.6 nM.

In the case of `COCCCOc1cc(C(=O)N(C(C)C)[C@@H]2CC[C@H](CCN(C(=O)Cc3ccccc3C(F)(F)F)C3CC3)NC2)ccc1OC` [Example 74, N-{(3R,6R)-6-[2-(Cyclopropyl{[2-(trifluoromethyl)phenyl]acetyl}amino)ethyl]-piperidin-3-yl}-N-isopropyl-4-methoxy-3-(3-methoxypropoxy)benzamide trifluoroacetate], the 50% inhibitory concentration (IC50) was found to be 5.1 nM.

`COCCCOc1cc(C(=O)N(C(C)C)[C@@H]2CC[C@H](CCN(C(=O)Cc3ccccn3)C3CC3)NC2)ccc1OC` [Example 75, N-((3R,6R)-6-{2-[Cyclopropyl(pyridin-2-ylacetyl)amino]ethyl}piperidin-3-yl)-N-isopropyl-4-methoxy-3-(3-methoxypropoxy)benzamide trifluoroacetate]: the IC50 stood at 4.7 nM.

As for `COCCCOc1cc(C(=O)N(C(C)C)[C@@H]2CC[C@H](CCN(C(=O)Cc3cccnc3)C3CC3)NC2)ccc1OC` [Example 78, N-((3R,6R)-6-{2-[Cyclopropyl(pyridin-3-ylacetyl)amino]ethyl}piperidin-3-yl)-N-isopropyl-4-methoxy-3-(3-methoxypropoxy)benzamide trifluoroacetate], the IC50 was determined as 0.79 nM.

As for `COCCCOc1cc(C(=O)N(C(C)C)[C@@H]2CC[C@H](CCN(C(=O)Cc3cccc(NS(C)(=O)=O)c3)C3CC3)NC2)ccc1OC` [Example 81, N-((3R,6R)-6-{2-[Cyclopropyl({3-[(methylsulfonyl)amino]phenyl}acetyl)amino]-ethyl}piperidin-3-yl)-N-isopropyl-4-methoxy-3-(3-methoxypropoxy)benzamide trifluoroacetate], the IC50 stood at 1.3 nM.

Take `COCCCOc1cc(C(=O)N(C(C)C)[C@@H]2CC[C@H](CCN(C(=O)Cc3cccc(C(=O)O)c3)C3CC3)NC2)ccc1OC` [Example 86, 3-(2-{Cyclopropyl[2-((2R,5R)-5-{isopropyl[4-methoxy-3-(3-methoxypropoxy)-benzoyl]amino}piperidin-2-yl)ethyl]amino}-2-oxoethyl)benzoic acid hydrochloride]: the concentration for half-maximal inhibition (IC50) came to 4 nM.

As for `COCCCCN1C(=O)C(C)(C)Oc2ccc(C(=O)N(C(C)C)[C@@H]3CCCNC3)cc21` [Example 126, N-Isopropyl-4-(4-methoxybutyl)-2,2-dimethyl-3-oxo-N-[(3R)-piperidin-3-yl]-3,4-dihydro-2H-1,4-benzoxazine-6-carboxyamide hydrochloride], the concentration for half-maximal inhibition (IC50) worked out at 21.7 nM.

For a further experiment, the system named is plasma renin activity / blood pressure.
Assay: not given
Conditions: clinical test in patients with hypertension; cited from earlier work.
For the compound `COCCCOc1cc(C[C@@H](C[C@H](N)[C@@H](O)C[C@H](C(=O)NCC(C)(C)C(N)=O)C(C)C)C(C)C)ccc1OC` [aliskiren], the hypotensive activity result is given as “excellent hypotensive activity comparable to other RA system inhibitors” and the plasma renin activity entry is given as “significantly inhibits plasma renin activity”.
